In data set [1] the test system is T-cells (peripheral blood mononuclear cells). Description: T-cell proliferation assay (PHA-stimulated PBMC, tritiated thymidine incorporation). Type of data set: cell-based, human. The note with it: in vitro; for IC50: PHA-stimulated human PBMC, 72 h + 18 h thymidine pulse, read-out: IC50, T-cell proliferation inhibition; for T-cell proliferation inhibitory activity, result in words: compared to substrate (1) and standard prednisolone. The method, then:
T-Cell Proliferation Assay The T-cell proliferation inhibitory activity of compounds 2-6 were evaluated by following the method of Nielsen et al. (1998). Peripheral blood mononuclear cells (PBMC) were isolated by Ficoll-Hypaque gradient centrifugation from the blood of healthy human volunteers. The concentration of the cell was adjusted to 2×10^6 cells/mL in RPMI-1640 media containing 5% FBS (Fetal bovine serum) and then 5 μg/mL phytohemagglutinin (PHA) was added into each well of a sterile 96-well plates. Different concentrations of test compounds (0.2, 1, 5, and 25 μg/mL) were then added, each in triplicate. Positive control wells contained cells and PHA, whereas the negative control contains cells alone. The plate was incubated in 5% CO2 at 37° C. for 72 hours and the cells were pulsed with 25 μL of tritiatedthymidine (0.5 μci/well), and the incubation was continued for 18 hours. Cells were harvested on a glass fiber filter, and the effect of the test compounds on proliferation was evaluated using a LS65000 liquid scintillation counter (Beckman Coulter, Fullerton, Calif., USA) quantitatively using a LS65000 liquid scintillation counter (Beckman Coulter, CA, USA). Counts per minute (CPM) were recorded, and the inhibiton of T-cell proliferation was calculated in comparison to control containing cells and PHA.
For orientation: Uptake of a labelled nucleoside into DNA is a usual measure of proliferation.

Each structure is given as a SMILES string. Where two headings read alike, the source gives them in different places.

Usually melting point stands for the temperature of the solid-liquid transition. Take `CC(=O)O[C@]1(C(C)=O)C[C@@H](O)[C@H]2[C@@H]3C[C@H](C)C4=CC(=O)CC[C@]4(C)[C@H]3[C@@H](O)C[C@@]21C` [Compound 5, 17α-Acetoxy-11β,15β-dihydroxy-6α-methylpregn-4-ene-3,20-dione]: the melting point was in the range of 228 to 230 °C. For the same molecule, the IC50 in data set [1] (90 h) is below 0.5 µM. For the same molecule, in data set [1], the IC50 is below 0.5 µM and the “T-cell proliferation inhibitory activity, result in words” value is reported as “potent inhibitors”.
Regarding `CC(=O)O[C@]1(C(C)=O)C[C@@H](O)[C@H]2[C@@H]3C[C@H](C)C4=CC(=O)CC[C@]4(C)[C@H]3C(=O)C[C@@]21C` [Compound 3, 17α-Acetoxy-15β-hydroxy-6α-methylpregn-4-ene-3,11,20-trione], the melting point fell in the range of 265 to 268 °C. Further, in data set [1] (90 h), the IC50 is 41.6 ± 8.14 µM. Besides, the “T-cell proliferation inhibitory activity, result in words” value in data set [1] was “moderately active”.
The molecule `CC(=O)O[C@]1(C(C)=O)CC[C@H]2[C@@H]3C[C@H](C)C4=CC(=O)CC[C@]4(C)[C@H]3C(=O)C[C@@]21C` [Compound 2, 17α-Acetoxy-6α-methylpregn-4-ene-3,11,20-trione] had a melting point of 238 to 240 °C. Further, the IC50 in data set [1] (90 h) is below 0.5 µM. In addition, in data set [1], the IC50 is below 0.5 µM and the “T-cell proliferation inhibitory activity, result in words” value is “potent inhibitors”.
`CC(=O)O[C@]1(C(C)=O)CC[C@H]2[C@@H]3C[C@H](C)C4=CC(=O)CC[C@]4(C)[C@H]3CC[C@@]21C` [Compound 1, Medroxyprogesterone acetate]: the IC50 in data set [1] was found to be 6.48 ± 5.18 µM.
With `C[C@]12C=CC(=O)C=C1CC[C@@H]1[C@@H]2[C@@H](O)C[C@@]2(C)[C@H]1CC[C@]2(O)C(=O)CO` [prednisolone, reference compound], the IC50 in data set [1] (90 h) and in data set [1] was 9.75 ± 0.03 µM each time.
The molecule `CC(=O)O[C@]1(C(C)=O)CC[C@H]2[C@@H]3C[C@@](C)(O)C4=CC(=O)CC[C@]4(C)[C@H]3[C@@H](O)C[C@@]21C` [Compound 6, 17α-Acetoxy-11β,6β-dihydroxy-6α-methylpregn-4-ene-3,20-dione] displayed a melting point of 152 to 154 °C. For the same molecule, the IC50 in data set [1] (90 h) was determined as 8.64 ± 0.02 µM. Also, in data set [1], the IC50 was found to be 8.64 ± 0.02 µM and the “T-cell proliferation inhibitory activity, result in words” value is on record as “strong activity”.
As to `CC(=O)O[C@]1(C(C)=O)CC[C@H]2[C@@H]3C[C@@](C)(O)C4=CC(=O)CC[C@]4(C)[C@H]3C(=O)C[C@@]21C` [Compound 4, 17α-Acetoxy-6β-hydroxy-6α-methylpregn-4-ene-3,11,20-trione], the melting point lay in the range of 232 to 233 °C. Further, the IC50 in data set [1] (90 h) was 40.14 ± 0.12 µM. In addition, in data set [1], the “T-cell proliferation inhibitory activity, result in words” value was “moderately active”.

The values above are taken from patent US20220145335A1, “Bio-catalyzed Synthesis of Potent Anti-inflammatory Agents from Medroxyprogesterone Acetate” (priority 2022, published 2022).
